pIC50, pKd: −log10 of the molar value.

One data set deals with Aβ42-induced toxicity. Nature of the data set: Inhibition of Aβ42 toxicity in differentiated PC-12 cells (MTT/LDH). As to conditions: 10 μM Aβ42, differentiated PC-12 cells. In kind it is cell-based, rat. On the procedure: (§1) The highest concentration tested was 100 μM. Non-toxic compounds then were tested for their ability to inhibit the toxicity of 10 μM Aβ42 in the same assay. The parent compound 1 was used as a control in both cases.

The test system of data set [1] is differentiated rat pheochromocytoma (PC-12) cells. Nature of the data set: Self-toxicity in differentiated PC-12 cells (MTT and/or LDH). Particulars: MTT and/or LDH assays, highest concentration tested 100 μM. As to the method:
as §1

The next data set can be described thus: Full 24-h PK profile. Further details: Brain AUC: unit not given here. Format: in vivo, mice. On the procedure: Based on the 2-time-point screen results, a full 24-h PK profile has been obtained for compounds 13 and 14. In these experiments, the blood and brain levels were measured at 7 time points—0.3, 0.6, 1, 2, 4, 8, and 24 h. Data for 1 are given for reference.

Data set [2] is described as follows: PK screening in mice, three routes, two time points. Particulars: for Blood Concentration, 40 min / Brain Concentration, 40 min / Blood Concentration, 4 h / Brain Concentration, 4 h: analyte: administered compound for 13 and 14, compound 1 in all other cases. As to the method: Each compound was administered to the mice at 2 mg/kg intravenously (I.V.), 2 mg/kg subcutaneously (S.C.), or 10 mg/kg orally (P.O.).

Data set [3] is described as follows: Incubation with simulated gastric fluid, LC-MS/MS. As to conditions: incubation 1 h, LC-MS/MS every 15 min.
The nature of data set [4]: Incubation with mouse plasma, LC-MS/MS. Particulars: incubation 1 h, LC-MS/MS every 15 min.
A short description of data set [5]: Incubation with mouse liver microsomes, LC-MS/MS. As to conditions: incubation 1 h, LC-MS/MS every 15 min. Format: in vitro ADME. A general note: Microsomes from liver hold many membrane-bound enzymes, among them those of drug oxidation.
In a further data set the target is RGD. Format: binding. Particulars: fluorometric titration in aqueous buffer at neutral pH; read-out: Dissociation constant Kd, RGD.
A further data set concerns the target KAA. Format: binding. As to conditions: fluorometric titration in aqueous buffer at neutral pH; read-out: Dissociation constant Kd, KAA.
The mark [6] stands for this setting: I.V., 24-h profile, 7 time points.
Where [7] appears, read: P.O., 24-h profile, 7 time points.
Where [8] appears, read: S.C., 24-h profile, 7 time points.

The term pIC50 denotes −log10 of the IC50, conventionally taken in molar units. As to `O=P([O-])(O)Oc1c2c(c(O)c3c1C1CC3c3cc4c(cc31)C1CC4c3ccccc31)C1CC2c2cc3c(cc21)C1CC3c2ccccc21.[Na+]` [Compound 13], the “protective effect against Aβ42-induced toxicity compared to 1” value with Aβ42-induced toxicity is listed as “higher protective effect”. The pIC50 in the data set with Aβ42-induced toxicity (LDH assay, read-out: Inhibition of Aβ42 toxicity, IC50 (LDH)) is 4.80. In data set [1], the Self-toxicity result was “Non-toxic”. Further, the LogBB in the data set “Full 24-h PK profile” (I.V., 24-h profile) is given as −2.06; in the data set “Full 24-h PK profile” (P.O., 24-h profile) it was −1.84; in “Full 24-h PK profile” (S.C., 24-h profile), 3.31. For the same compound, the “Blood T1/2” value in “Full 24-h PK profile” (setting [6]) is reported as 1.2 h; in “Full 24-h PK profile” (setting [7]), 16 h; in “Full 24-h PK profile” (setting [8]) it was 11.1 h. In addition, the “Brain AUC” value in the data set “Full 24-h PK profile” (setting [6]) is on record as 3.71; in the data set “Full 24-h PK profile” (setting [7]) it was 1.33. The entries for the “Brain T1/2” value in “Full 24-h PK profile” (setting [6]), in the data set “Full 24-h PK profile” (setting [7]) and in the data set “Full 24-h PK profile” (setting [8]) were 1.5 h, 3.1 h and 1.1 h, respectively. For the same compound, the “Blood AUC” value is 423 in the data set “Full 24-h PK profile” (I.V., 24-h profile, 7 time points, in ng·h/mL); 91.2 in “Full 24-h PK profile” (P.O., 24-h profile, 7 time points, in ng·h/mL); 1043 in “Full 24-h PK profile” (S.C., 24-h profile, 7 time points, in ng·h/mL). Further, the “Blood Bioavailability” value in the data set “Full 24-h PK profile” (P.O., 24-h profile) was determined as 21.6%; in the data set “Full 24-h PK profile” (S.C., 24-h profile), 246.7%. The “BBB penetration relative to compound 1” value in “Full 24-h PK profile” (full 24-h PK profile) was “improved”. The “Blood Concentration, 40 min” value in data set [2] (mice, 2 mg/kg I.V., 40 min) amounted to 55 ng/mL; in data set [2] (mice, 2 mg/kg S.C., 40 min), 98 ng/mL; in data set [2] (mice, 10 mg/kg P.O., 40 min) it was 0.0 ng/mL. Moreover, the “Brain Concentration, 40 min” value in data set [2] (mice, 2 mg/kg I.V., 40 min) is recorded as 3.58 ng/g; in [2] (mice, 2 mg/kg S.C., 40 min), 1.19 ng/g; in data set [2] (mice, 10 mg/kg P.O., 40 min), 1.79 ng/g. The “BBB penetration, 40 min” value in data set [2] (mice, 2 mg/kg I.V., 40 min, percent ratio between brain and blood concentration) was determined as 6.5%; in data set [2] (mice, 2 mg/kg S.C., 40 min, percent ratio between brain and blood concentration), 1.2%. Also, the “Blood Concentration, 4 h” value in data set [2] (mice, 2 mg/kg I.V., 4 h) was determined as 53 ng/mL; in data set [2] (mice, 2 mg/kg S.C., 4 h), 50 ng/mL; in [2] (mice, 10 mg/kg P.O., 4 h), 0.3 ng/mL. For the same compound, the “Brain Concentration, 4 h” value was 1.28 ng/g in [2] (mice, 2 mg/kg I.V., 4 h); 1.69 ng/g in [2] (mice, 2 mg/kg S.C., 4 h); 0.26 ng/g in data set [2] (mice, 10 mg/kg P.O., 4 h). Moreover, the “BBB penetration, 4 h” value was determined as 2.4% in data set [2] (mice, 2 mg/kg I.V., 4 h, percent ratio between brain and blood concentration); 3.4% in data set [2] (mice, 2 mg/kg S.C., 4 h, percent ratio between brain and blood concentration); 100% in data set [2] (mice, 10 mg/kg P.O., 4 h, percent ratio between brain and blood concentration). Besides, the “Bioavailability, 40 min” value in [2] (mice, 2 mg/kg S.C., 40 min, percent ratio of the I.V. blood concentration) came to 178.2%; in data set [2] (mice, 10 mg/kg P.O., 40 min, percent ratio of the I.V. blood concentration) it was 0.0%. Besides, the “Bioavailability, 4 h” value in data set [2] (mice, 2 mg/kg S.C., 4 h, percent ratio of the I.V. blood concentration) came to 94.3%; in data set [2] (mice, 10 mg/kg P.O., 4 h, percent ratio of the I.V. blood concentration) it was 0.5%. Moreover, in data set [2] (mice, 10 mg/kg P.O., 40 min, percent ratio between brain and blood concentration), the “BBB penetration, 40 mm” value was found to be 0.0%.
Turning to `O=C(O)Cc1ccccc1Nc1c(Cl)cccc1Cl` [diclofenac], the “hydrolysis in simulated gastric fluid” value in data set [3] is reported as “hydrolyzed quantitatively”. Besides, the “hydrolysis in mouse plasma” value in [4] is on record as “hydrolyzed quantitatively”. Also, the “hydrolysis in mouse liver microsomes” value in data set [5] is given as “hydrolyzed quantitatively”.
The term pKd denotes −log10 of the Kd, conventionally taken in molar units. As for `C#CCCOP(=O)(O)Oc1c2c(c(OP(=O)(O)O)c3c1C1CC3c3cc4c(cc31)C1CC4c3ccccc31)C1CC2c2cc3c(cc21)C1CC3c2ccccc21` [Compound 12], the values for the pKd on RGD and at KAA were 4.22 and 4.70, respectively.
On to `COc1c2c(c(OP(=O)([O-])O)c3c1C1CC3c3cc4c(cc31)C1CC4c3ccccc31)C1CC2c2cc3c(cc21)C1CC3c2ccccc21.[Na+]` [Compound 14], for which the “BBB penetration relative to compound 1” value in the data set “Full 24-h PK profile” (mouse, in vivo) is reported as “improved”. Also, in the data set “Full 24-h PK profile” (mouse, in vivo, iv), the “Blood AUC” value is listed as 1880, the “Blood T1/2” value was 1.7 h, the “Brain AUC” value was determined as 73.2 and the “Brain T1/2” value was determined as 0.8 h. In addition, the LogBB in the data set “Full 24-h PK profile” (mouse, in vivo, iv) is reported as −1.41. Also, in “Full 24-h PK profile” (mouse, in vivo, po), the “Blood AUC” value is 16.1, the “Blood Bioavailability” value stood at 0.9%, the “Blood T1/2” value is 4.4 h and the “Brain AUC” value is listed as 13.7. In addition, in the data set “Full 24-h PK profile” (mouse, in vivo, po), the “Brain T1/2” value was determined as 6.5 h, the LogBB was −0.07 and the “oral bioavailability relative to compound 1” value is reported as “improved”. Besides, in the data set “Full 24-h PK profile” (mouse, in vivo, sc), the “Blood AUC” value came to 1147, the “Blood Bioavailability” value was 61.0%, the “Blood T1/2” value was found to be 14.8 h and the “Brain AUC” value was determined as 4.4. This compound had a LogBB in the data set “Full 24-h PK profile” (mouse, in vivo, sc) of 0. Besides, in [2] (mouse, in vivo, 2 mg/kg), the “Bioavailability, 40 min” value was 281.1% and the “Bioavailability, 4 h” value amounted to 291.2%. Besides, in data set [2] (mouse, in vivo, 10 mg/kg), the “Bioavailability, 40 min” value is 3.9% and the “Bioavailability, 4 h” value stood at 20.3%. Moreover, the “BBB penetration when administered I.V. (compared to 1)” value in data set [2] (mouse, in vivo, iv) is “substantially increased”. Further, in data set [2] (mouse, in vivo, iv, 2 mg/kg), the “BBB penetration, 40 min” value is recorded as 10.0% and the “BBB penetration, 4 h” value is recorded as 65.9%. Besides, in [2] (mouse, in vivo, po, 10 mg/kg), the “BBB penetration, 40 mm” value is listed as 6.1% and the “BBB penetration, 4 h” value stood at 2.6%. For the same compound, in data set [2] (mouse, in vivo, sc, 2 mg/kg), the “BBB penetration, 40 min” value is recorded as 0.1% and the “BBB penetration, 4 h” value was 0.4%.

The values are drawn from patent US20210122771A1, “NEW MOLECULAR TWEEZERS AGAINST NEUROLOGICAL DISORDERS AND VIRAL INFECTIONS” (The Regents of the University of California, priority 2018, published 2021).
